From ChEMBL document CHEMBL1135258, “Substrate spectrum of tyrocidine thioesterase probed with randomized peptide N-acetylcysteamine thioesters” (Bioorg Med Chem Lett, 2002)
Where a SMILES comes first, the peptide text is derived from it. [ ]: non-standard residue; d: D form. The star is where a group is joined. SCH2CH2NHAc = CC(=O)NCCS*; Orn = NCCC[C@H](N)C(=O)O

What was measured:
[1] = biological target: T1, Thioesterase GrsT homolog tycF (Brevibacillus brevis) (UniProt O30412); test: Apparent kinetic constant (Kcat) for tyrocidine thioesterase amplified from Bacillus brevis (ATCC8185)
T1 sequence (whole entry): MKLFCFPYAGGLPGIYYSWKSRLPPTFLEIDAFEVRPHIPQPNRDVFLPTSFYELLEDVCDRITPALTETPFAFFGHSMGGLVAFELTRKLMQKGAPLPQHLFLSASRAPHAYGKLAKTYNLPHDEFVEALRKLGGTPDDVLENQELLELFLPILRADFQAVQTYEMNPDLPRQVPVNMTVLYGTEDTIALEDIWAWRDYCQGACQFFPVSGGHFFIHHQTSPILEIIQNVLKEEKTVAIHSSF

[2] = biological target: T1, Thioesterase GrsT homolog tycF (Brevibacillus brevis); test: Catalytic efficiency (Kcat/Km) was determined; set-up: unit not given here

Compound | k cat [1] [s⁻¹] | Ratio [2]
CC(=O)NCCSC(=O)[C@H](CC(C)C)NC(=O)[C@H](CCCN)NC(=O)[C@@H](NC(=O)[C@H](Cc1ccc(O)cc1)NC(=O)[C@H](CCC(N)=O)NC(=O)[C@H](CC(N)=O)NC(=O)[C@H](CCC(N)=O)NC(=O)[C@H](Cc1ccccc1)NC(=O)[C@@H]1CCCN1C(=O)[C@H](N)Cc1ccccc1)C(C)C | 0.117 | 0.43
CC(=O)NCCSC(=O)[C@H](CC(C)C)NC(=O)[C@H](CCCN)NC(=O)[C@@H](NC(=O)[C@H](Cc1ccc(O)cc1)NC(=O)[C@H](CCC(N)=O)NC(=O)[C@H](CC(C)C)NC(=O)[C@@H](Cc1ccccc1)NC(=O)[C@H](Cc1ccccc1)NC(=O)[C@@H]1CCCN1C(=O)[C@H](N)Cc1ccccc1)C(C)C | 0.167 | 0.23
CC(=O)NCCSC(=O)[C@H](CC(C)C)NC(=O)[C@H](CCCN)NC(=O)[C@@H](NC(=O)[C@H](Cc1ccc(O)cc1)NC(=O)[C@H](CCC(N)=O)NC(=O)[C@H](CC(N)=O)NC(=O)[C@H](CCC(=O)O)NC(=O)[C@H](Cc1ccccc1)NC(=O)[C@@H]1CCCN1C(=O)[C@H](N)Cc1ccccc1)C(C)C | 0.11 | 0.57
CC(=O)NCCSC(=O)[C@H](CC(C)C)NC(=O)[C@H](CCCN)NC(=O)[C@@H](NC(=O)[C@H](Cc1ccc(O)cc1)NC(=O)[C@H](CCC(N)=O)NC(=O)[C@@H](NC(=O)[C@@H](Cc1ccccc1)NC(=O)[C@H](Cc1ccccc1)NC(=O)[C@@H]1CCCN1C(=O)[C@H](N)Cc1ccccc1)C(C)C)C(C)C | 0.12 | 0.29
CC(=O)NCCSC(=O)[C@H](CC(C)C)NC(=O)[C@H](CCCN)NC(=O)[C@@H](NC(=O)[C@H](Cc1ccc(O)cc1)NC(=O)[C@H](CCC(N)=O)NC(=O)[C@H](CC(N)=O)NC(=O)[C@H](CO)NC(=O)[C@H](Cc1ccccc1)NC(=O)[C@@H]1CCCN1C(=O)[C@H](N)Cc1ccccc1)C(C)C | 0.13 | 0.57
CC(=O)NCCSC(=O)[C@H](CC(C)C)NC(=O)[C@H](CCCN)NC(=O)[C@@H](NC(=O)[C@H](Cc1ccc(O)cc1)NC(=O)[C@H](CCC(N)=O)NC(=O)[C@H](CC(N)=O)NC(=O)[C@H](Cc1c[nH]cn1)NC(=O)[C@H](Cc1ccccc1)NC(=O)[C@@H]1CCCN1C(=O)[C@H](N)Cc1ccccc1)C(C)C | 0.2 | 0.15
CC(=O)NCCSC(=O)[C@H](CC(C)C)NC(=O)[C@H](CCCN)NC(=O)[C@@H](NC(=O)[C@H](Cc1ccc(O)cc1)NC(=O)[C@H](CCC(N)=O)NC(=O)[C@H](CC(N)=O)NC(=O)[C@@H](Cc1ccccc1)NC(=O)[C@H](Cc1ccccc1)NC(=O)[C@H](CC(N)=O)NC(=O)[C@H](N)Cc1ccccc1)C(C)C | 0.117 | 0.084
CSCC[C@H](NC(=O)[C@H](Cc1ccccc1)NC(=O)[C@@H]1CCCN1C(=O)[C@H](N)Cc1ccccc1)C(=O)N[C@@H](CC(N)=O)C(=O)N[C@@H](CCC(N)=O)C(=O)N[C@@H](Cc1ccc(O)cc1)C(=O)N[C@H](C(=O)N[C@@H](CCCN)C(=O)N[C@@H](CC(C)C)C(=O)SCCNC(C)=O)C(C)C | 0.267 | 0.8
CC(=O)NCCSC(=O)[C@H](CC(C)C)NC(=O)[C@H](CCCN)NC(=O)[C@@H](NC(=O)[C@H](Cc1ccc(O)cc1)NC(=O)[C@H](CCC(N)=O)NC(=O)[C@H](CC(N)=O)NC(=O)[C@H](CC(=O)O)NC(=O)[C@H](Cc1ccccc1)NC(=O)[C@@H]1CCCN1C(=O)[C@H](N)Cc1ccccc1)C(C)C | 0.233 | 0.058
CC(=O)NCCSC(=O)[C@H](CC(C)C)NC(=O)[C@H](CCCN)NC(=O)[C@@H](NC(=O)[C@H](Cc1ccc(O)cc1)NC(=O)[C@H](CCC(N)=O)NC(=O)[C@H](CC(N)=O)NC(=O)[C@H](CC(N)=O)NC(=O)[C@H](Cc1ccccc1)NC(=O)[C@@H]1CCCN1C(=O)[C@H](N)Cc1ccccc1)C(C)C | 0.133 | 0.42
CC(=O)NCCSC(=O)[C@H](CC(C)C)NC(=O)[C@H](CCCN)NC(=O)[C@@H](NC(=O)[C@H](Cc1ccc(O)cc1)NC(=O)[C@H](CCC(N)=O)NC(=O)[C@H](CC(N)=O)NC(=O)[C@@H](NC(=O)[C@H](Cc1ccccc1)NC(=O)[C@@H]1CCCN1C(=O)[C@H](N)Cc1ccccc1)C(C)C)C(C)C | 0.45 | 0.19
CC(=O)NCCSC(=O)[C@H](CC(C)C)NC(=O)[C@H](CCCN)NC(=O)[C@@H](NC(=O)[C@H](Cc1ccc(O)cc1)NC(=O)[C@H](CCC(N)=O)NC(=O)[C@H](CC(N)=O)NC(=O)[C@H](CCCCN)NC(=O)[C@H](Cc1ccccc1)NC(=O)[C@@H]1CCCN1C(=O)[C@H](N)Cc1ccccc1)C(C)C | 0.233 | 0.92
CC(=O)NCCSC(=O)[C@H](CC(C)C)NC(=O)[C@H](CCCN)NC(=O)[C@@H](NC(=O)[C@H](Cc1ccc(O)cc1)NC(=O)[C@H](CCC(N)=O)NC(=O)[C@H](CC(N)=O)NC(=O)[C@@H](NC(=O)[C@H](Cc1ccccc1)NC(=O)[C@@H]1CCCN1C(=O)[C@H](N)Cc1ccccc1)[C@@H](C)O)C(C)C | 0.135 | 0.26
CC(=O)NCCSC(=O)[C@H](CC(C)C)NC(=O)[C@H](CCCN)NC(=O)[C@@H](NC(=O)[C@H](Cc1ccc(O)cc1)NC(=O)[C@H](CC(C)C)NC(=O)[C@H](CC(N)=O)NC(=O)[C@@H](Cc1ccccc1)NC(=O)[C@H](Cc1ccccc1)NC(=O)[C@@H]1CCCN1C(=O)[C@H](N)Cc1ccccc1)C(C)C | 0.717 | 0.32
CC(=O)NCCSC(=O)[C@H](CC(C)C)NC(=O)[C@H](CCCN)NC(=O)[C@@H](NC(=O)[C@H](Cc1ccc(O)cc1)NC(=O)[C@H](CC(N)=O)NC(=O)[C@H](CC(N)=O)NC(=O)[C@@H](Cc1ccccc1)NC(=O)[C@H](Cc1ccccc1)NC(=O)[C@@H]1CCCN1C(=O)[C@H](N)Cc1ccccc1)C(C)C | 1.33 | 0.72
CC(=O)NCCSC(=O)[C@H](CC(C)C)NC(=O)[C@H](CCCN)NC(=O)[C@@H](NC(=O)[C@H](Cc1ccc(O)cc1)NC(=O)[C@H](CCC(N)=O)NC(=O)[C@H](CC(N)=O)NC(=O)[C@@H](Cc1ccccc1)NC(=O)[C@H](Cc1ccccc1)NC(=O)[C@@H]1CCCN1C(=O)[C@H](N)Cc1ccccc1)C(C)C (stereo in doubt; form 1) | 0.733 | 4.78
CC(=O)NCCSC(=O)[C@H](CC(C)C)NC(=O)[C@H](CCCN)NC(=O)[C@@H](NC(=O)[C@H](Cc1ccc(O)cc1)NC(=O)[C@H](CCC(N)=O)NC(=O)[C@H](CC(N)=O)NC(=O)[C@@H](Cc1ccccc1)NC(=O)[C@H](Cc1ccccc1)NC(=O)[C@H](CC(=O)O)NC(=O)[C@H](N)Cc1ccccc1)C(C)C | 0.167 | 0.11
CC(=O)NCCSC(=O)[C@H](CC(C)C)NC(=O)[C@H](CCCN)NC(=O)[C@@H](NC(=O)[C@H](Cc1ccc(O)cc1)NC(=O)[C@H](CCC(N)=O)NC(=O)[C@H](CC(N)=O)NC(=O)CNC(=O)[C@H](Cc1ccccc1)NC(=O)[C@@H]1CCCN1C(=O)[C@H](N)Cc1ccccc1)C(C)C | 0.133 | 0.36
CC(=O)NCCSC(=O)[C@H](CC(C)C)NC(=O)[C@H](CCCN)NC(=O)[C@@H](NC(=O)[C@H](Cc1ccc(O)cc1)NC(=O)[C@H](CCC(N)=O)NC(=O)[C@H](CC(N)=O)NC(=O)[C@H](CC(C)C)NC(=O)[C@H](Cc1ccccc1)NC(=O)[C@@H]1CCCN1C(=O)[C@H](N)Cc1ccccc1)C(C)C | 0.138 | 0.28
CC(=O)NCCSC(=O)[C@H](CC(C)C)NC(=O)[C@H](CCCN)NC(=O)[C@@H](NC(=O)[C@H](Cc1ccc(O)cc1)NC(=O)[C@@H](NC(=O)[C@H](CC(N)=O)NC(=O)[C@@H](Cc1ccccc1)NC(=O)[C@H](Cc1ccccc1)NC(=O)[C@@H]1CCCN1C(=O)[C@H](N)Cc1ccccc1)C(C)C)C(C)C | 0.16 | 0.18
CC(=O)NCCSC(=O)[C@H](CC(C)C)NC(=O)[C@H](CCCN)NC(=O)[C@@H](NC(=O)[C@H](Cc1ccc(O)cc1)NC(=O)[C@H](CCC(N)=O)NC(=O)[C@H](CC(N)=O)NC(=O)[C@H](C)NC(=O)[C@H](Cc1ccccc1)NC(=O)[C@@H]1CCCN1C(=O)[C@H](N)Cc1ccccc1)C(C)C | 0.183 | 0.6
CC(=O)NCCSC(=O)[C@H](CC(C)C)NC(=O)[C@H](CCCN)NC(=O)[C@@H](NC(=O)[C@H](Cc1ccc(O)cc1)NC(=O)[C@H](CCC(N)=O)NC(=O)[C@H](CC(N)=O)NC(=O)[C@H](Cc1ccc(O)cc1)NC(=O)[C@H](Cc1ccccc1)NC(=O)[C@@H]1CCCN1C(=O)[C@H](N)Cc1ccccc1)C(C)C | 0.183 | 0.17
CC(=O)NCCSC(=O)[C@H](CC(C)C)NC(=O)[C@H](CCCN)NC(=O)[C@@H](NC(=O)[C@H](Cc1ccc(O)cc1)NC(=O)[C@H](CCC(N)=O)NC(=O)[C@H](CC(N)=O)NC(=O)[C@@H](Cc1ccccc1)NC(=O)[C@H](Cc1ccccc1)NC(=O)[C@H](C)NC(=O)[C@H](N)Cc1ccccc1)C(C)C (H-[dF]AF[dF]NQYV[Orn]L-SCH2CH2NHAc) | 0.117 | 0.23
CC(=O)NCCSC(=O)[C@H](CC(C)C)NC(=O)[C@H](CCCN)NC(=O)[C@@H](NC(=O)[C@H](Cc1ccc(O)cc1)NC(=O)[C@H](CCC(N)=O)NC(=O)[C@H](CC(N)=O)NC(=O)[C@H](Cc1c[nH]c2ccccc12)NC(=O)[C@H](Cc1ccccc1)NC(=O)[C@@H]1CCCN1C(=O)[C@H](N)Cc1ccccc1)C(C)C | 0.12 | 0.95
CC(=O)NCCSC(=O)[C@H](CC(C)C)NC(=O)[C@H](CCCN)NC(=O)[C@@H](NC(=O)[C@H](Cc1ccc(O)cc1)NC(=O)[C@H](CCC(N)=O)NC(=O)[C@H](CC(N)=O)NC(=O)[C@@H]1CCCN1C(=O)[C@H](Cc1ccccc1)NC(=O)[C@@H]1CCCN1C(=O)[C@H](N)Cc1ccccc1)C(C)C | 0.25 | 0.11
CC(=O)NCCSC(=O)[C@H](CC(C)C)NC(=O)[C@H](CCCN)NC(=O)[C@H](CCCN=C(N)N)NC(=O)[C@H](Cc1ccc(O)cc1)NC(=O)[C@H](CCC(N)=O)NC(=O)[C@H](CC(N)=O)NC(=O)[C@@H](Cc1ccccc1)NC(=O)[C@H](Cc1ccccc1)NC(=O)[C@@H]1CCCN1C(=O)[C@H](N)Cc1ccccc1 | 0.15 | 0.28
